Source: patent publication US7098340B2, “Benzyl sulfonamide derivatives” (Warner Lambert Company LLC, priority 2003, dated 2006)

Target: T1, androgen receptor (Homo sapiens, UniProt P10275)
T1 sequence (P10275 1-920 Q868H): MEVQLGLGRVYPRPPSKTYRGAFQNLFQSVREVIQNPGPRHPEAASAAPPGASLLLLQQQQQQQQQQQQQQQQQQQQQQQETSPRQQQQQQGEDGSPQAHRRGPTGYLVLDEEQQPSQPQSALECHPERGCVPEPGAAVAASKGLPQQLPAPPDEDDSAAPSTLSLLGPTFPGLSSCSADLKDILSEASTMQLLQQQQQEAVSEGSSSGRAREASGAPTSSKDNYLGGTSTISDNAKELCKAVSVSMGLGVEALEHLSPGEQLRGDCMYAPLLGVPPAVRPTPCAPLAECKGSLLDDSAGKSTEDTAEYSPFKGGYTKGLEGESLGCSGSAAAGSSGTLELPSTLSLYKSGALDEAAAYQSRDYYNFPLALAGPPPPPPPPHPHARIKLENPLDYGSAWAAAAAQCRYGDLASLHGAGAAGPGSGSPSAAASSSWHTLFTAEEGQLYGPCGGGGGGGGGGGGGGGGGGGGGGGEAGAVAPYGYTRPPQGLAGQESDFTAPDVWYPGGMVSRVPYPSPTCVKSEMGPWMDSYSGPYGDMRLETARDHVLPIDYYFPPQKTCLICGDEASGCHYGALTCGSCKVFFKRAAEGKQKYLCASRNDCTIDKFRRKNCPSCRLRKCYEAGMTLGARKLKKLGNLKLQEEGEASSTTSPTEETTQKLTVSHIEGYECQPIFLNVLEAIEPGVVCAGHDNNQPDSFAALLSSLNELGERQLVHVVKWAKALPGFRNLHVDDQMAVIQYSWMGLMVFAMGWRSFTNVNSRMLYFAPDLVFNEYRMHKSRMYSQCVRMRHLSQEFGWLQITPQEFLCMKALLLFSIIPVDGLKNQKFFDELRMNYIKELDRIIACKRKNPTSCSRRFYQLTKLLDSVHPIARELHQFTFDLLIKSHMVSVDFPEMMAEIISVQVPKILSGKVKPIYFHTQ
Assay: AR Antagonist Cell Assay (MMTV-luciferase reporter, DHT-stimulated)
Assay type: cell-based
Conditions: MDA-MB453-MMTV clone 54-19 cells; antagonism of 100 pM DHT, 17 hr, luciferase readout
Method: The compounds ability to antagonize the effects of androgen on the androgen receptor were determined in the protocol described immediately below.
Experimental Procedure for AR Antagonist Cell Assay
Cell line: MDA-MB453-MMTV clone 54–19. This cell line is a stable transfected cell line with MDA-MB453 cell background (human breast tumor cell expressing high level of androgen receptor). A MMTV minimal promoter containing ARE was first cloned in front of a firefly luciferase reporter gene. Then the cascade was cloned into transfection vector pUV120puro. Electroporation method was used for transfecting MDA-MB-453 cell. Puromycin resistant stable cell line was selected.
Cell Culture Media and Reagents:
Culture medium: DMEM (high glucose, Gibco cat #: 11960-044), 10% FBS, and 1% L-glutamine
Plating medium: DMEM (phenol red free), 10% charcoal treated HyClone serum, 1% L-glutamine
Assay medium: DMEM (phenol red free), 1% charcoal treated HyClone serum, 1% L-glutamine, and 1% penicillin/streptomycin
3× luciferase buffer: 2% beta-mercaptoethanol, 0.6% ATP, 0.0135% luciferine in cell lysis buffer
• 1. Cells are maintained in culture medium, splitting cells when they reach 80–90% confluence • 2. To test compounds, 10,000 cells/well are plated to opaque 96 cell culture plate in 100 ul/well plating medium, culture for overnight at 37° C. in cell culture incubator • 3. Carefully remove plating medium, then add 80 ul/well of pre-warmed assay medium, add 10 ul/well testing compound (final concentration at 10 uM or 1 uM), incubate at 37° C. for 30 minutes • 4. Add 10 ul/well freshly prepared DHT (final concentration at 100 pM) to each well, incubate at 37° C. for 17 hr (overnight) • 5. Add 50 ul/well 3× luciferase buffer, incubate at room temperature for 5 minutes, then count on Luminometer.
The fold induction over background by 100 pM DHT in the absence of testing compounds is standardized as 100% and experimental result is expressed as percentage of inhibition by testing compounds.

Row | IC50 [µM] | Compound
1 | > 10 | O=c1cc(C(F)(F)F)c2cc(Cc3ccc(S(=O)(=O)Nc4cccc5ncccc45)cc3)ccc2[nH]1 [Example 29, 4-(2-Oxo-4-trifluoromethyl-1,2-dihydroquinolin-6-ylmethyl)-N-quinolin-5-ylbenzenesulfonamide]
2 | > 10 | O=c1cc(C(F)(F)F)c2cc(Cc3ccc(S(=O)(=O)Nc4cccc5cccnc45)cc3)ccc2[nH]1 [Example 30, 4-(2-Oxo-4-trifluoromethyl-1,2-dihydroquinolin-6-ylmethyl)-N-quinolin-8-ylbenzenesulfonamide]
3 | > 10 | O=c1cc(C(F)(F)F)c2cc(Cc3ccc(S(=O)(=O)Nc4cccc5cnccc45)cc3)ccc2[nH]1 [Example 31, N-Isoquinolin-5-yl-4-(2-oxo-4-trifluoromethyl-1,2-dihydroquinolin-6-ylmethyl)-benzenesulfonamide]
4 | 8.02 | CSc1n[nH]c(NS(=O)(=O)c2ccc(Cc3ccc4[nH]c(=O)cc(C(F)(F)F)c4c3)cc2)c1C#N [Example 32, N-(4-Cyano-5-methylsulfanyl-2H-pyrazol-3-yl)-4-(2-oxo-4-trifluoromethyl-1,2-dihydroquinolin-6-ylmethyl)-benzenesulfonamide]
5 | > 10 | COc1ccc(OC)c(NS(=O)(=O)c2ccc(Cc3ccc4[nH]c(=O)cc(C(F)(F)F)c4c3)cc2)c1 [Example 33, N-(2,5-Dimethoxyphenyl)-4-(2-oxo-4-trifluoromethyl-1,2-dihydroquinolin-6-ylmethyl)-benzenesulfonamide]
6 | > 10 | COc1cc(NS(=O)(=O)c2ccc(Cc3ccc4[nH]c(=O)cc(C(F)(F)F)c4c3)cc2)cc(OC)c1 [Example 34, N-(3,5-Dimethoxyphenyl)-4-(2-oxo-4-trifluoromethyl-1,2-dihydroquinolin-6-ylmethyl)-benzenesulfonamide]
7 | > 10 | O=c1cc(C(F)(F)F)c2cc(Cc3ccc(S(=O)(=O)Nc4cc(F)c(F)c(F)c4)cc3)ccc2[nH]1 [Example 35, 4-(2-Oxo-4-trifluoromethyl-1,2-dihydroquinolin-6-ylmethyl)-N-(3,4,5-trifluorophenyl)-benzenesulfonamide]
8 | 6.14 | O=c1cc(C(F)(F)F)c2cc(Cc3ccc(S(=O)(=O)Nc4cccc(OC(F)F)c4)cc3)ccc2[nH]1 [Example 36, N-(3-Difluoromethoxyphenyl)-4-(2-oxo-4-trifluoromethyl-1,2-dihydroquinolin-6-ylmethyl)-benzenesulfonamide]
9 | > 10 | O=c1cc(C(F)(F)F)c2cc(Cc3ccc(S(=O)(=O)Nc4cc(-c5ccccc5)n[nH]4)cc3)ccc2[nH]1 [Example 37, 4-(2-Oxo-4-trifluoromethyl-1,2-dihydroquinolin-6-ylmethyl)-N-(5-phenyl-2H-pyrazol-3-yl)-benzenesulfonamide]
10 | > 10 | O=c1cc(C(F)(F)F)c2cc(Cc3ccc(S(=O)(=O)Nc4cccc(-c5cnco5)c4)cc3)ccc2[nH]1 [Example 38, N-(3-Oxazol-5-ylphenyl)-4-(2-oxo-4-trifluoromethyl-1,2-dihydroquinolin-6-ylmethyl)benzenesulfonamide]
11 | > 10 | O=c1cc(C(F)(F)F)c2cc(Cc3ccc(S(=O)(=O)Nc4cccc(C(F)(F)F)c4)cc3)ccc2[nH]1 [Example 39, 4-(2-Oxo-4-trifluoromethyl-1,2-dihydroquinolin-6-ylmethyl)-N-(3-trifluoromethylphenyl)-benzenesulfonamide]
12 | 5.61 | O=c1cc(C(F)(F)F)c2cc(Cc3ccc(S(=O)(=O)Nc4ccccc4Br)cc3)ccc2[nH]1 [Example 40, N-(2-Bromophenyl)-4-(2-oxo-4-trifluoromethyl-1,2-dihydroquinolin-6-ylmethyl)-benzenesulfonamide]
13 | > 10 | O=c1cc(C(F)(F)F)c2cc(Cc3ccc(S(=O)(=O)Nc4ccccc4N4CCCCC4)cc3)ccc2[nH]1 [Example 41, 4-(2-Oxo-4-trifluoromethyl-1,2-dihydroquinolin-6-ylmethyl)-N-(2-piperidin-1-ylphenyl)-benzenesulfonamide]
14 | > 10 | O=c1cc(C(F)(F)F)c2cc(Cc3ccc(S(=O)(=O)Nc4cccc(OC(F)(F)F)c4)cc3)ccc2[nH]1 [Example 42, 4-(2-Oxo-4-trifluoromethyl-1,2-dihydroquinolin-6-ylmethyl)-N-(3-trifiuoromethoxyphenyl)-benzenesulfonamide]
15 | > 10 | O=c1cc(C(F)(F)F)c2cc(Cc3ccc(S(=O)(=O)Nc4cccc(Cc5ccccc5)c4)cc3)ccc2[nH]1 [Example 43, N-(3-Benzylphenyl)-4-(2-oxo-4-trifluoromethyl-1,2-dihydroquinolin-6-ylmethyl)-benzenesulfonamide]
16 | 2.8 | O=c1cc(C(F)(F)F)c2cc(Cc3ccc(S(=O)(=O)Nc4cccc(OCc5ccccc5)c4)cc3)ccc2[nH]1 [Example 44, N-(3-Benzyloxyphenyl)-4-(2-oxo-4-trifluoromethyl-1,2-dihydroquinolin-6-ylmethyl)-benzenesulfonamide]
17 | > 10 | COc1ccc(N(Cc2ccccc2)S(=O)(=O)c2ccc(Cc3ccc4[nH]c(=O)cc(C(F)(F)F)c4c3)cc2)cc1 [Example 45, N-Benzyl-N-(4-methoxyphenyl)-4-(2-oxo-4-trifluoromethyl-1,2-dihydroquinolin-6-ylmethyl)-benzenesulfonamide]
18 | > 10 | O=c1cc(C(F)(F)F)c2cc(Cc3ccc(S(=O)(=O)Nc4cccc5c4OC(F)(F)C(F)(F)O5)cc3)ccc2[nH]1 [Example 47, 4-(2-Oxo-4-trifluoromethyl-1,2-dihydroquinolin-6-ylmethyl)-N-(2,2,3,3-tetrafluoro-2,3-dihydrobenzo[1,4]dioxin-5-yl)-benzenesufonamide]
19 | 4.97 | CC(C)N(c1ccccc1)c1ccc(NS(=O)(=O)c2ccc(Cc3ccc4[nH]c(=O)cc(C(F)(F)F)c4c3)cc2)cc1 [Example 48, N-[4-(Isopropylphenylamino)-phenyl]-4-(2-oxo-4-trifluoromethyl-1,2-dihydroquinolin-6-ylmethyl)-benzenesulfonamide]
20 | > 10 | O=c1cc(C(F)(F)F)c2cc(Cc3ccc(S(=O)(=O)Nc4ccc(-n5ccc(C(F)(F)F)n5)cc4)cc3)ccc2[nH]1 [Example 49, 4-(2-Oxo-4-trifluoromethyl-1,2-dihydroquinolin-6-ylmethyl)-N-[4-(3-trifluoromethylpyrazol-1-yl)phenyl]-benzenesulfonamide]
21 | > 10 | COc1cccc(NS(=O)(=O)c2ccc(Cc3ccc4[nH]c(=O)cc(C(F)(F)F)c4c3)cc2)c1 [Example 50, N-(3-Methoxyphenyl)-4-(2-oxo-4-trifluoromethyl-1,2-dihydroquinolin-6-ylmethyl)-benzenesulfonamide]
22 | 2.18 | O=c1cc(C(F)(F)F)c2cc(Cc3ccc(S(=O)(=O)NCCO)cc3)ccc2[nH]1 [Example 51, N-(2-Hydroxyethyl)-4-(2-oxo-4-trifluoromethyl-1,2-dihydroquinolin-6-ylmethyl)-benzenesulfonamide]
23 | 9.9 | O=c1cc(C(F)(F)F)c2cc(Cc3ccc(S(=O)(=O)NC4CCN(Cc5ccccc5)CC4)cc3)ccc2[nH]1 [Example 52, N-(1-Benzylpipendin-4-yl)-4-(2-oxo-4-trifluoromethyl-1,2-dihydroquinolin-6-ylmethyl)-benzenesulfonamide]
24 | > 10 | COCCNS(=O)(=O)c1ccc(Cc2ccc3[nH]c(=O)cc(C(F)(F)F)c3c2)cc1 [Example 53, N-(2-Methoxyethyl)-4-(2-oxo-4-trifluoromethyl-1,2-dihydroquinolin-6-ylmethyl)-benzenesulfonamide]
